Measured values published in PubChem BioAssay (NCI).
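A five-concentration, 48-hour dose response in 96-well plates underlies each endpoint, interpolated linearly between surrounding concentrations. GI50: concentration for 50% inhibition of growth. TGI denotes the concentration required for complete inhibition of growth.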

Columns and labels:
Experiment in all cases: growth of human tumour cells (NCI), 48 h
IGROV1 ovarian = system: IGROV1 ovarian
HS 578T breast = system: HS 578T breast
UACC-257 melanoma = system: UACC-257 melanoma
NCI-H522 lung = system: NCI-H522 lung
NCI-H23 lung = system: NCI-H23 lung
KM12 colon = system: KM12 colon
SF-295 CNS = system: SF-295 CNS
HCT-15 colon = system: HCT-15 colon
DU-145 prostate = system: DU-145 prostate
TK-10 renal = system: TK-10 renal
SNB-75 CNS = system: SNB-75 CNS
T-47D breast = system: T-47D breast
NCI/ADR-RES ovarian = system: NCI/ADR-RES ovarian
SW-620 colon = system: SW-620 colon
HCT-116 colon = system: HCT-116 colon
CCRF-CEM leukemia = system: CCRF-CEM leukemia
SK-MEL-28 melanoma = system: SK-MEL-28 melanoma
786-0 renal = system: 786-0 renal
HOP-62 NSCLC = system: HOP-62 NSCLC
BT-549 breast = system: BT-549 breast
SN12C renal = system: SN12C renal
RXF 393 renal = system: RXF 393 renal
SF-268 CNS = system: SF-268 CNS
SNB-19 CNS = system: SNB-19 CNS
HOP-92 NSCLC = system: HOP-92 NSCLC
UACC-62 melanoma = system: UACC-62 melanoma
A498 renal = system: A498 renal
MDA-MB-231 breast = system: MDA-MB-231 breast
OVCAR-8 ovarian = system: OVCAR-8 ovarian
RPMI-8226 leukemia = system: RPMI-8226 leukemia
OVCAR-3 ovarian = system: OVCAR-3 ovarian
SK-OV-3 ovarian = system: SK-OV-3 ovarian
MCF7 breast = system: MCF7 breast
LOX IMVI melanoma = system: LOX IMVI melanoma
K-562 leukemia = system: K-562 leukemia
M14 melanoma = system: M14 melanoma
ACHN renal = system: ACHN renal
HCC-2998 colon = system: HCC-2998 colon
OVCAR-4 ovarian = system: OVCAR-4 ovarian
A549 NSCLC = system: A549 NSCLC
MDA-MB-435 = system: MDA-MB-435
U251 CNS = system: U251 CNS
EKVX NSCLC = system: EKVX NSCLC
UO-31 renal = system: UO-31 renal
HL-60(TB) leukemia = system: HL-60(TB) leukemia
SK-MEL-5 melanoma = system: SK-MEL-5 melanoma
HT29 colon = system: HT29 colon
COLO 205 colon = system: COLO 205 colon
MALME-3M melanoma = system: MALME-3M melanoma
OVCAR-5 ovarian = system: OVCAR-5 ovarian
NCI-H226 lung = system: NCI-H226 lung
SR leukemia = system: SR leukemia
MOLT-4 leukemia = system: MOLT-4 leukemia
NCI-H460 lung = system: NCI-H460 lung
PC-3 prostate = system: PC-3 prostate
SK-MEL-2 melanoma = system: SK-MEL-2 melanoma
SF-539 CNS = system: SF-539 CNS
CAKI-1 renal = system: CAKI-1 renal

In the case of `COC(=O)CCC/C=C\C[C@H]1C=CC(=O)/C1=C/C[C@@H](O)C/C=C\CC(F)(F)F`, the GI50 (IGROV1 ovarian) is reported as 2.78 µM, the TGI (IGROV1 ovarian) is reported as 7.6 µM and the GI50 (HS 578T breast) is reported as 8.98 µM. It also gave a TGI (HS 578T breast) of 70.3 µM, a GI50 (UACC-257 melanoma) of 2.54 µM and a TGI (UACC-257 melanoma) of 7.82 µM. For the same compound, the GI50 (NCI-H522 lung) was 1.06 µM, the TGI (NCI-H522 lung) was 2.57 µM and the GI50 (NCI-H23 lung) was 1.9 µM. The TGI (NCI-H23 lung) was 4.16 µM, the GI50 (KM12 colon) was 1.97 µM and the TGI (KM12 colon) was 5.65 µM. It also gave a GI50 (SF-295 CNS) of 2.51 µM, a TGI (SF-295 CNS) of 5.82 µM and a GI50 (HCT-15 colon) of 1.07 µM. The TGI (HCT-15 colon) was 3.29 µM, the GI50 (DU-145 prostate) was 3.89 µM and the TGI (DU-145 prostate) was 14.7 µM. The GI50 (TK-10 renal) was 3.22 µM, the TGI (TK-10 renal) was 10.8 µM and the GI50 (SNB-75 CNS) was 12.4 µM. The TGI (SNB-75 CNS) was 29.3 µM, the GI50 (T-47D breast) was 3.06 µM and the TGI (T-47D breast) was 16.3 µM. It also gave a GI50 (NCI/ADR-RES ovarian) of 2.32 µM, a TGI (NCI/ADR-RES ovarian) of 8.33 µM and a GI50 (SW-620 colon) of 1.89 µM. It also gave a TGI (SW-620 colon) of 12.4 µM, a GI50 (HCT-116 colon) of 1.26 µM and a TGI (HCT-116 colon) of 2.75 µM. It also gave a GI50 (CCRF-CEM leukemia) of 0.345 µM, a TGI (CCRF-CEM leukemia) of 5.27 µM and a GI50 (SK-MEL-28 melanoma) of 2.08 µM. The TGI (SK-MEL-28 melanoma) was 4.77 µM, the GI50 (786-0 renal) was 1.85 µM and the TGI (786-0 renal) was 3.57 µM. It also gave a GI50 (HOP-62 NSCLC) of 1.89 µM, a TGI (HOP-62 NSCLC) of 5.16 µM and a GI50 (BT-549 breast) of 2.12 µM. For the same compound, the TGI (BT-549 breast) was 5.37 µM, the GI50 (SN12C renal) was 2.53 µM and the TGI (SN12C renal) was 7.38 µM. For the same compound, the GI50 (RXF 393 renal) was 1.98 µM, the TGI (RXF 393 renal) was 3.66 µM and the GI50 (SF-268 CNS) was 2.84 µM. The TGI (SF-268 CNS) was 13.8 µM, the GI50 (SNB-19 CNS) was 2.99 µM and the TGI (SNB-19 CNS) was 14.2 µM. It also gave a GI50 (HOP-92 NSCLC) of 3.27 µM, a TGI (HOP-92 NSCLC) of 7.88 µM and a GI50 (UACC-62 melanoma) of 1.2 µM. The TGI (UACC-62 melanoma) was 3.64 µM, the GI50 (A498 renal) was 2.47 µM and the TGI (A498 renal) was 4.57 µM. It also gave a GI50 (MDA-MB-231 breast) of 2.72 µM, a TGI (MDA-MB-231 breast) of 7.41 µM and a GI50 (OVCAR-8 ovarian) of 3.3 µM. For the same compound, the TGI (OVCAR-8 ovarian) was 13.4 µM, the GI50 (RPMI-8226 leukemia) was 1.26 µM and the TGI (RPMI-8226 leukemia) was 7.9 µM. For the same compound, the GI50 (OVCAR-3 ovarian) was 1.31 µM, the TGI (OVCAR-3 ovarian) was 3.49 µM and the GI50 (SK-OV-3 ovarian) was 5.55 µM. For the same compound, the TGI (SK-OV-3 ovarian) was 16.5 µM, the GI50 (MCF7 breast) was 0.393 µM and the TGI (MCF7 breast) was 10.3 µM. It also gave a GI50 (LOX IMVI melanoma) of 0.243 µM, a TGI (LOX IMVI melanoma) of 0.668 µM and a GI50 (K-562 leukemia) of 0.789 µM. The TGI (K-562 leukemia) was 28.3 µM, the GI50 (M14 melanoma) was 1.5 µM and the TGI (M14 melanoma) was 4.39 µM. For the same compound, the GI50 (ACHN renal) was 1.95 µM, the TGI (ACHN renal) was 3.97 µM and the GI50 (HCC-2998 colon) was 2 µM. For the same compound, the TGI (HCC-2998 colon) was 3.5 µM, the GI50 (OVCAR-4 ovarian) was 5.09 µM and the TGI (OVCAR-4 ovarian) was 18.6 µM. For the same compound, the GI50 (A549 NSCLC) was 2.91 µM, the TGI (A549 NSCLC) was 8.73 µM and the GI50 (MDA-MB-435) was 2.05 µM. For the same compound, the TGI (MDA-MB-435) was 10.6 µM, the GI50 (U251 CNS) was 1.79 µM and the TGI (U251 CNS) was 4.32 µM. The GI50 (EKVX NSCLC) was 4.04 µM, the TGI (EKVX NSCLC) was 14.6 µM and the GI50 (UO-31 renal) was 1.7 µM. For the same compound, the TGI (UO-31 renal) was 3.36 µM, the GI50 (HL-60(TB) leukemia) was 1.93 µM and the TGI (HL-60(TB) leukemia) was 7.79 µM. The GI50 (SK-MEL-5 melanoma) was 1.64 µM, the TGI (SK-MEL-5 melanoma) was 3.05 µM and the GI50 (HT29 colon) was 1.89 µM. It also gave a TGI (HT29 colon) of 4.49 µM, a GI50 (COLO 205 colon) of 2.03 µM and a TGI (COLO 205 colon) of 4.58 µM. For the same compound, the GI50 (MALME-3M melanoma) was 2.39 µM, the TGI (MALME-3M melanoma) was 7.03 µM and the GI50 (OVCAR-5 ovarian) was 3.42 µM. It also gave a TGI (OVCAR-5 ovarian) of 9.65 µM, a GI50 (NCI-H226 lung) of 2.08 µM and a TGI (NCI-H226 lung) of 4.1 µM. The GI50 (SR leukemia) was 0.384 µM, the TGI (SR leukemia) was 5.44 µM and the GI50 (MOLT-4 leukemia) was 0.773 µM. It also gave a TGI (MOLT-4 leukemia) of 4.22 µM, a GI50 (NCI-H460 lung) of 3.04 µM and a TGI (NCI-H460 lung) of 10.6 µM. It also gave a GI50 (PC-3 prostate) of 2.79 µM, a TGI (PC-3 prostate) of 7.31 µM and a GI50 (SK-MEL-2 melanoma) of 2.55 µM. The TGI (SK-MEL-2 melanoma) was 7.53 µM, the GI50 (SF-539 CNS) was 3.24 µM and the TGI (SF-539 CNS) was 9.09 µM. It also gave a GI50 (CAKI-1 renal) of 4.07 µM and a TGI (CAKI-1 renal) of 14.8 µM.
